Common to all, as to assay type: cell-based, human
In assay [1] the test system is MLR-activated PBMCs. The assay can be described thus: ELISA of proinflammatory cytokines, MSCs co-cultured with MLR-activated PBMCs, medium with nAChR antagonist or agonist. As for the experimental part:
(§1) The medium was harvested from nAChR antagonist or agonist-containing co-culture experiments. The secreted proinflammatory cytokines were quantified using the ELISA kits for TNF-α (BD Biosciences; cat. #555212) and IFN-γ (BD Biosciences; cat. #555141). The medium in which MLR- or PHA-activated PBMCs were cultured was used to carry out the assay for NGF (R&D Systems, Minneapolis, Minn., USA; cat. # DY256-05) and BDNF (R&D Systems; cat. # DBD00).
(§2) α-Bungarotoxin (EMD Millipore; cat. #203980), an nAChRα7 antagonist, was added to the medium at the concentration of […]. As cholinergic agonists, ACh chloride (Sigma; cat. # A6625) and carbachol (EMD Millipore; cat. #212385) were used at the concentrations of 1 nM and 10 pM, respectively, and the experiments were conducted.
(§3) In order to confirm ACh-nAChR pathway mechanism of MSCs under the inflammatory conditions, experiments were performed according to the methods described in Experimental Examples 1-2 and 1-10. The mixed lymphocyte reaction (MLR) condition was set such that PBMCs obtained from different donors were cultured together, and the phytohemagglutinin (PHA) treatment condition was set such that PBMCs were treated with PHA. According to inflammatory conditions, each PBMCs only group (P and Po) obtained from different donors; MSCs group co-cultured in mixed lymphocyte reaction (MLR) condition (MSC in MLR); mixed lymphocyte reaction condition group without MSCs (MLR); or MSCs group co-cultured in phytohemagglutinin (PHA) treatment condition (MSC in P^PHA) were placed. A cholinergic antagonist such as α-bungarotoxin (α-BTX, an antagonist of nAChRα7); a cholinergic agonist such as ACh chloride (ACh-Cl, an agonist of AChR); or a non-specific cholinergic agonist such as carbachol was added to the medium, and the activity of TNF-α and IFN-γ of MSCs by each inflammatory condition was confirmed. The results are illustrated in FIG. 14.
For orientation: An ELISA detects its analyte on a solid surface through an enzyme-linked reagent.

For assay [2], the system named is PHA-activated PBMCs. Put plainly: ELISA of proinflammatory cytokines, MSCs co-cultured with PHA-activated PBMCs, medium with nAChR antagonist or agonist. The method, then: as §1, §2, §3
The subject of assay [3] is MLR- or PHA-activated PBMCs. Put plainly: MSCs co-cultured with MLR- or PHA-activated PBMCs in medium supplemented with carbachol. The conditions noted are these: carbachol 10 pM added to MSCs culture medium under the inflammatory condition (FIGS. 15A to 15D).
[4] abbreviates: MSCs + MLR-activated PBMCs, α-BTX 1 M or ACh-Cl 1 nM added to the medium.
[5] abbreviates: MSCs + PHA-activated PBMCs, α-BTX 1 M or ACh-Cl 1 nM added to the medium.

Read-outs that look alike come from different tables or passages of the source.

For the molecule `CC(=O)OCC[N+](C)(C)C.[Cl-]` [ACh-Cl, ACh chloride], in assay [1] (setting [4]), the IFN-γ result was “significantly inhibited” and the TNF-α entry is reported as “significantly inhibited”. Moreover, in assay [2] (setting [5]), the IFN-γ entry is recorded as “significantly inhibited” and the TNF-α entry is “significantly inhibited”.

Turning to `C[N+](C)(C)CCOC(N)=O` [carbachol], in assay [3], the inflammatory cytokine release result was “inhibited” and the lymphocyte proliferation entry was “inhibited the lymphocyte proliferation”.

For α-Bungarotoxin [α-BTX], the IFN-γ entry in assay [1] and in assay [2] was “activated again” throughout. The TNF-α entry in assay [1] and in assay [2] was “activated again” in each case.
